Results from the OligoGym collection.
These antisense oligonucleotides have a phosphorothioate backbone; sugars and methylation of C are not fully specified.

What was measured:
Conditions in all cases: ASO
TFRC = target: TFRC
CD44 = target: CD44
SRA1 = target: SRA1
Also: test concentration or dose not given here.

Sequence | remaining target (mRNA or protein) (fraction of control) (CD44) | remaining target (mRNA or protein) (fraction of control) (SRA1) | other results
AAACAAGTCTACCGTTCT |  |  | remaining target (mRNA or protein) (fraction of control) (TFRC): ≥ 1
AAAGGTTGGCGATCAGGA | ≥ 1 |  | 
AAATCCGATGCTCAGAGC | ≥ 1 |  | 
AACCCTGGGAAATGTCCT | ≥ 1 |  | 
AAGCCAAGGCCAAGAGGG | ≥ 1 |  | 
AAGGCATTGGGCAGGTCT | 0.99 |  | 
AATGTCCTTAGCTGGTGG | ≥ 1 |  | 
ACAGCTCCATTGCCACTG | ≥ 1 |  | 
ACCAGGCCCTATTAACCC | ≥ 1 |  | 
ACGTGGAATACACCTGCA | ≥ 1 |  | 
AGAGCTTTCTCCATCTGG | ≥ 1 |  | 
AGAGGGATGCCAAGATGA | ≥ 1 |  | 
AGATTCGCAATGAAACAA | ≥ 1 |  | 
AGCAATGCCCAGGGATTA | ≥ 1 |  | 
AGCCATCCATAGCACACC | 0.97 |  | 
AGCCGCTGCTCACGTCAT | ≥ 1 |  | 
AGGACTGATCCAGGGTTT | 0.83 |  | 
AGGTCTCAAATCCGATGC | ≥ 1 |  | 
AGTGGAAAGCAATGCCCA | ≥ 1 |  | 
ATAGCACACCCGAGGATG | ≥ 1 |  | 
ATCAGTAGGGTTGCTGGG | ≥ 1 |  | 
ATCCAGGGACTGTCTTCG | ≥ 1 |  | 
ATCCATAGCACACCCGAG | ≥ 1 |  | 
CAACGGTTGTTTCTTTCC | ≥ 1 |  | 

Sequence | remaining target (mRNA or protein) (fraction of control) (CD44) | remaining target (mRNA or protein) (fraction of control) (SRA1) | other results
CAAGGTGCTATTGAAAGC | 0.92 |  | 
CAGGGATTAGGCTATGGA | ≥ 1 |  | 
CCAACCTCAGTGGAAAGC | ≥ 1 |  | 
CCACATGCCCTTCTATGA | 0.9 |  | 
CCATTTCCTGAGACTTGC | ≥ 1 |  | 
CCCACACCTTCTTCGACT | 0.94 |  | 
CCTTTGGTGTCTCCCAGA | ≥ 1 |  | 
CGATCTGCGCCAGGCTCA | 0.72 |  | 
CGGAGCGAACGGAGGGCG | ≥ 1 |  | 
CGTCCGAGAGATGCTGTA | 0.52 |  | 
CGTTGAGTCCACTTGGCT | ≥ 1 |  | 
CTCAGCGGCACGAGGCAG | 0.91 |  | 
CTGGACATAGCGGGTGCC | ≥ 1 |  | 
CTGTCTTCGTCTGGGATG | ≥ 1 |  | 
CTGTGCTGTCGGTGATCC | ≥ 1 |  | 
CTTGTTCACCAAATGCAC | ≥ 1 |  | 
GAAAGCCTTGCAGAGGTC | 0.9 |  | 
GACGACTCCTTGTTCACC | ≥ 1 |  | 
GACTGTTGACTGCAATGC | ≥ 1 |  | 
GACTTGCTGGCCTCTCCG | ≥ 1 |  | 
GATTAGGCTATGGAAGGG | ≥ 1 |  | 
GCAAGAATCAAAGCCAAG | ≥ 1 |  | 
GCCATTCTGGAATTTGGG | ≥ 1 |  | 
GCCTCCAAGTGGAACTGA | 0.99 |  | 

Sequence | remaining target (mRNA or protein) (fraction of control) (CD44) | remaining target (mRNA or protein) (fraction of control) (SRA1) | other results
GCGGCAGGTTATATTCAA | ≥ 1 |  | 
GCTGCTCCTTTCACTGGA | 0.9 |  | 
GGAACCGAGGATTATGAA |  | 0.68 | 
GGAGCCAAGTGACAGAAG |  | 0.86 | 
GGAGCCTTACTTGAAGGA |  | 0.54 | 
GGATGCTTGTTCAGTCTA |  | ≥ 1 | 
GGCACCGGAAGGAGATGG |  | 0.43 | 
GGCACGAGGCAGAGTCCC | ≥ 1 |  | 
GGCAGGTCTGTGACTGAT | ≥ 1 |  | 
GGCCCAGGAGAAGTCTCT |  | ≥ 1 | 
GGCCTCTCCGTTGAGTCC | ≥ 1 |  | 
GGCCTGGGTCTGCAGCCC |  | 0.94 | 
GGCGTCGGCTGATGTCAT |  | 0.42 | 
GGCTTTCTGTCCTCCACA | ≥ 1 |  | 
GGGAGCCTTACTTGAAGG |  | 0.88 | 
GGGCCCTAATTTACAAAG | 0.88 |  | 
GGGTCAGGCCCAGTGGGA |  | ≥ 1 | 
GGGTCCGCCGGCCTGGGT |  | ≥ 1 | 
GGTGGTGGTAAGAAGGGA |  | ≥ 1 | 
GGTGTCCGGTGAGTCTGG |  | 0.5 | 
GGTTATGTTTCCAACGGT | ≥ 1 |  | 
GGTTCTTCTCAGCTGTGG |  | 0.49 | 
GGTTGGCGATCAGGAATA | ≥ 1 |  | 
GTAGGCAGTAGTCTGACT |  | 0.42 | 

Sequence | remaining target (mRNA or protein) (fraction of control) (CD44) | remaining target (mRNA or protein) (fraction of control) (SRA1) | other results
GTATCTCAAGGGTGATAC |  | 0.6 | 
GTATGGTATGGTTCTTCT |  | 0.94 | 
GTCCTCCACAGCTCCATT | ≥ 1 |  | 
GTCGGCTGATGTCATCAC |  | ≥ 1 | 
GTCTCCCAGAAGCATCTG | ≥ 1 |  | 
GTCTGCAGCCCGTATGAG |  | ≥ 1 | 
GTGGAGCTGAAGCATTGA | ≥ 1 |  | 
GTGGATGTCATCTGCTGC |  | ≥ 1 | 
GTGGGCAAGGTGCTATTG | ≥ 1 |  | 
GTGTTGTTTGCTGCACAG | ≥ 1 |  | 
GTTGTGTTTGCTCCACCT | 0.92 |  | 
GTTTCCAACGGTTGTTTC | ≥ 1 |  | 
TAAGTGTCCCAGCTCCCT | 0.98 |  | 
TACACCTGCAAAGCGGCA | ≥ 1 |  | 
TAGCGGGTGCCATCACGG | ≥ 1 |  | 
TATGAAGCCTGCTGGAAG |  | 0.64 | 
TCAAAGGACTGATCCAGG | ≥ 1 |  | 
TCACATGGTCAACCATGA |  | 0.93 | 
TCAGCACATCCTCCATCA |  | 0.97 | 
TCAGTCACATGGTCAACC |  | 0.5 | 
TCATGTCCACATTCTGCA | 0.81 |  | 
TCCAAAGGTCTCAGCACA |  | 0.26 | 
TCCACTTGGCTTTCTGTC | ≥ 1 |  | 
TCCATCAAAGGCATTGGG | ≥ 1 |  | 

Sequence | remaining target (mRNA or protein) (fraction of control) (CD44) | remaining target (mRNA or protein) (fraction of control) (SRA1) | other results
TCCCAGCTCCCTGTAATG | ≥ 1 |  | 
TCTCCAAGGCATAGGAGA |  | 0.8 | 
TCTCCATCTGGGCCATTG | ≥ 1 |  | 
TCTGAAAACAGACTCCTC |  | 0.99 | 
TCTGCTGCGTCCCACCGG |  | 0.32 | 
TCTTCTGCCCACACCTTC | ≥ 1 |  | 
TCTTGGTCTCTGGTAGCA | ≥ 1 |  | 
TGAAAGCTCTTGCACCAG |  | 0.64 | 
TGAAGGAGGTGGAGGCCC |  | ≥ 1 | 
TGAATGGAGAAGGGAGAA |  | 0.75 | 
TGACAACTTTCCTCCAGC |  | 0.15 | 
TGACAGAAGGTCTCCAAG |  | 0.81 | 
TGACTGCAATGCAAACTG | ≥ 1 |  | 
TGAGACTTGCTGGCCTCT | 0.93 |  | 
TGCAGAGGTCAGCGGCCT | ≥ 1 |  | 
TGCTATTGAAAGCCTTGC | ≥ 1 |  | 
TGCTGCGTCCCACCGGTG |  | 0.27 | 
TGCTGGAAGCCTGGTATG |  | 0.28 | 
TGGCCACGGCAGTCTTCC |  | 0.52 | 
TGGGAGGTGTTGTATGTG | ≥ 1 |  | 
TGGTAAGCAGCGAGCGCC |  | 0.74 | 
TGGTAGCAGGGATTCTGT | ≥ 1 |  | 
TGGTATGGTTCTTCTCAG |  | 0.58 | 
TGTCATCACATACCTGCT |  | 0.76 | 

Sequence | remaining target (mRNA or protein) (fraction of control) (CD44) | remaining target (mRNA or protein) (fraction of control) (SRA1) | other results
TGTGTGGCCACGGCAGTC |  | 0.47 | 
TGTTCCTGCAGCAGTGCC |  | 0.39 | 
TTCCAAAGGTCTCAGCAC |  | 0.49 | 
TTCCAGCCGCGTTCCTTG |  | ≥ 1 | 
TTCCTGCAGCAGTGCCAG |  | 0.45 | 
TTCCTTGTTGCCTGCGGA |  | 0.72 | 
TTCTCATGCTGAAATGAA |  | 0.74 | 
TTCTGCAATTAATCTTTT |  | 0.59 | 
TTCTTTACAGGTATTGAC |  | ≥ 1 | 
TTGACTCCCATGTGAGTG | ≥ 1 |  | 
TTGCTCCACCTTCTTGAC | ≥ 1 |  | 
TTGGCTGCCTCCTCTGAA |  | 0.58 | 
TTGGTAAGCAGCGAGCGC |  | 0.56 | 
TTTAACTCCTACCATCCA |  | 0.89 | 
TTTACAGGTATTGACAAC |  | ≥ 1 | 
TTTCACCGCAGAGATGTT |  | ≥ 1 | 
TTTCCTCCCAGGGACCAG | ≥ 1 |  | 
TTTCTCTTCATTGGCTGC |  | 0.38 | 
TTTCTGCAATTAATCTTT |  | ≥ 1 | 
TTTGCTGCACAGATGGAG | ≥ 1 |  | 
TTTTAACTCCTACCATCC |  | ≥ 1 | 
